This test deals with DNA-PK (Homo sapiens, UniProt P78527). Kind of test: DNA-PK inhibition assay (radiometric, 33P-ATP). Type of test: biochemical. Conditions: 100 μM ATP, competitive tight-binding fit. The method in brief:
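33P transfer from 100 µM ATP to a DNA-PK peptide (0.8 mg/mL) is measured after 45 min, using about 6 nM enzyme activated by 10 µg/mL sheared dsDNA (HEPES pH 7.5, MgCl2, DTT). Filter-bound counts fitted to a competitive tight-binding inhibition model give Ki.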

The structures appear in SMILES notation.

In general, Ki refers to the equilibrium dissociation constant of an inhibitor or competing ligand from its target. A high value points to weaker binding. `CNC(=O)c1ccnc2c([C@H](C)CNc3cc(-c4ccc([S+](C)[O-])cc4)ncn3)cccc12` (some centres unmarked) [Compound 677] showed a Ki of less than 0.03 µM.

In the case of `CNC(=O)c1ccnc2c([C@H](C)CNc3cc(-c4ccc(N5CCOCC5)cc4)ncn3)cccc12` [Compound 678], the Ki is less than 0.03 µM.

With `CNC(=O)c1ccnc2c([C@H](C)CNc3cc(-c4ccc(C(C)(C)C#N)cc4)ncn3)cccc12` [Compound 679], the Ki is less than 0.03 µM.

The compound `CNC(=O)c1ccnc2c([C@H](C)CNc3cc(-c4ccc(NS(C)(=O)=O)cc4)ncn3)cccc12` [Compound 680] had a Ki of less than 0.03 µM.

`CNC(=O)c1ccnc2c([C@H](C)CNc3cc(-c4ccc(C5(C#N)CC5)cc4)ncn3)cccc12` [Compound 681] showed a Ki of less than 0.03 µM.

Turning to `CNC(=O)c1ccnc2c([C@H](C)CNc3cc(-c4ccc(OC)cc4)ncn3)cccc12` [Compound 682], the Ki is less than 0.03 µM.

For `CNC(=O)c1ccnc2c([C@H](C)CNc3cc(-c4ccc(C#N)cc4)ncn3)cccc12` [Compound 683], the Ki was less than 0.03 µM.

Turning to `CNC(=O)c1ccnc2c([C@H](C)CNc3cc(-c4ccc(F)cc4)ncn3)cccc12` [Compound 684], the inhibition constant Ki is less than 0.03 µM.

Regarding `CNC(=O)c1ccnc2c([C@H](C)CNc3cc(-c4ccc(O)cc4)ncn3)cccc12` [Compound 685], the inhibition constant (Ki) is less than 0.03 µM.

Compound `CNC(=O)c1c(F)cnc2c([C@H](C)CNc3cc(-c4cccs4)ncn3)cccc12` [Compound 689] yielded a Ki of less than 0.03 µM.

The compound `Cc1ncc(-c2cc(NC[C@@H](C)c3cccc4c(=O)n(C)cnc34)ncn2)cn1` [Compound 697] showed a Ki of less than 0.03 µM.

Compound `Cc1ccc(-c2cc(NC[C@@H](C)c3cccc4c(=O)n(C)cnc34)ncn2)cn1` [Compound 698] had a Ki of less than 0.03 µM.

The compound `CNC(=O)c1ccnc2c([C@H](C)CNc3cc(-c4ccc(NC5CCN(Cc6ccccc6)C5)nc4)ncn3)cccc12` (some centres unmarked) [Compound 701] registered a Ki of less than 0.03 µM.

Compound `CNC(=O)c1ccnc2c([C@H](C)CNc3cc(-c4ccc(NCCn5cccc5)nc4)ncn3)cccc12` [Compound 702] had a Ki of less than 0.03 µM.

In the case of `CNC(=O)c1ccnc2c([C@H](C)CNc3cc(-c4ccc(NCCN5CCCC5=O)nc4)ncn3)cccc12` [Compound 703], the Ki is less than 0.03 µM.

For `CCCNCCNc1ccc(-c2cc(NC[C@@H](C)c3cccc4c(C(=O)NC)ccnc34)ncn2)cn1` [Compound 705], the Ki is less than 0.03 µM.

In turn, `CNCCN(C)c1ccc(-c2cc(NC[C@@H](C)c3cccc4c(C(=O)NC)ccnc34)ncn2)cn1` [Compound 706] yielded a Ki of less than 0.03 µM.

Consider `CNC(=O)c1ccnc2c([C@H](C)CNc3cc(-c4ccc(NCCNCCO)nc4)ncn3)cccc12` [Compound 707], for which the Ki is less than 0.03 µM.

In turn, `CNC(=O)c1ccnc2c([C@H](C)CNc3cc(-c4ccc(NCCC(C)O)nc4)ncn3)cccc12` (some centres unmarked) [Compound 709] came in with a Ki of less than 0.03 µM.

The compound `CNC(=O)c1ccnc2c([C@H](C)CNc3cc(-c4ccc(NCc5nc6ccccc6[nH]5)nc4)ncn3)cccc12` [Compound 710] gave a Ki of less than 0.03 µM.

Take `CNC(=O)c1ccnc2c([C@H](C)CNc3cc(-c4ccc(N(C)C5CCS(=O)(=O)C5)nc4)ncn3)cccc12` (some centres unmarked) [Compound 711]: the Ki was less than 0.03 µM.

`CNC(=O)c1ccnc2c([C@H](C)CNc3cc(-c4ccc(NCc5cocn5)nc4)ncn3)cccc12` [Compound 712] yielded a Ki of less than 0.03 µM.

Take `CNC(=O)c1ccnc2c([C@H](C)CNc3cc(-c4ccc(N(C)CCOCC5CC5)nc4)ncn3)cccc12` [Compound 714]: the Ki is less than 0.03 µM.

The compound `CNC(=O)c1ccnc2c([C@H](C)CNc3cc(-c4ccc(NCCCO)nc4)ncn3)cccc12` [Compound 715] registered a Ki of less than 0.03 µM.

The compound `CCN1CCN(c2ccc(-c3cc(NC[C@@H](C)c4cccc5c(C(=O)NC)ccnc45)ncn3)cn2)CC1=O` [Compound 716] gave a Ki of less than 0.03 µM.

As for `CNC(=O)c1ccnc2c([C@H](C)CNc3cc(-c4ccc(N(C)CCC(C)(C)O)nc4)ncn3)cccc12` [Compound 717], the inhibition constant (Ki) is less than 0.03 µM.

For the origin of these results see US10391095B2, “DNA-PK inhibitors” (Vertex Pharmaceuticals Incorporated, priority 2012, dated 2019).
